From PubChem BioAssay (NCI) come the findings set out here.

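Interpolation was linear, between the two tested concentrations surrounding the appropriate level; five concentrations were tested over 48 hours in 96-well plates. Abbreviation: GI50, concentration required for 50% inhibition of growth. At the TGI there is no net growth.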 A value given as a limit tells only on which side of the number the result lay.

This assay has as its system MDA-MB-468 breast. In words: inhibition of tumour cell growth, NCI panel, 48 h.
In the case of `O=C1OCC2=C1C(c1cccc(Cl)c1)c1cc3c(cc1N2CCO)CCC3` (centres undefined), the GI50 was 23.1 nM and the TGI stood at 840 nM. Regarding `COc1ncc(-c2ccc3nccc(C#CCCCCC(=O)NO)c3c2)cc1NS(=O)(=O)c1ccc(F)cc1F`, the GI50 is 21.4 nM and the TGI is 116 nM. For the molecule `COc1c(B(O)O)cccc1-c1nc2c(F)cc3n[nH]c(C)c3c2c2c1CCCC2`, the GI50 was 994 nM and the TGI was found to be 4120 nM.

As to `CC(=O)ON=C1C=CC(=C(C#N)c2ccccc2)C=C1`, the GI50 was 420 nM and the TGI worked out at 12500 nM.

In the case of `COC(=O)Nc1nc2ccc(C(=O)c3ccc(F)cc3)cc2[nH]1`, the GI50 is 812 nM and the TGI is greater than 100000 nM. In the case of `CO/C(=C1/NC(=O)C(Cc2ccc(O)c(Br)c2)N(C)C(=O)C(C)NC(=O)CCC/C=C(\C)CCC(C)OC1=O)c1ccccc1` (centres undefined), the GI50 was 21.7 nM. As for `Cn1c(=O)c(Oc2ccc(F)cc2F)cc2cnc(NCC(C)(C)O)nc21`, the GI50 is greater than 25000 nM and the TGI is greater than 25000 nM.

With `CC(=O)N[C@@H](Cc1ccc(OP(=O)(O)O)cc1)C(=O)N[C@H]1CCC(=O)N2CCC[C@@H](C(=O)NC3CCc4ccccc43)N2C1=O` (some centres undefined), the GI50 was greater than 25000 nM and the TGI is greater than 25000 nM. Turning to `COCCn1c2c([n+](Cc3cnccn3)c1C)C(=O)c1ccccc1C2=O`, the GI50 was less than 10 nM and the TGI amounted to 14.1 nM. `C#CCNC(=O)CC[C@@H](C)[C@H]1CC[C@H]2[C@@H]3CC[C@@H]4CC(=O)CC[C@]4(C)[C@H]3CC[C@]12C`: the GI50 was 13800 nM and the TGI was 45400 nM.
